{
  "source": "paper PMC4029899",
  "about": "(Clinical pharmacology and therapeutics, 2014)",
  "key": {"CYP2D6 [1]": {"target": "T1, CYP2D6 (Homo sapiens, UniProt P10635)", "T1 sequence (P10635 whole entry)": "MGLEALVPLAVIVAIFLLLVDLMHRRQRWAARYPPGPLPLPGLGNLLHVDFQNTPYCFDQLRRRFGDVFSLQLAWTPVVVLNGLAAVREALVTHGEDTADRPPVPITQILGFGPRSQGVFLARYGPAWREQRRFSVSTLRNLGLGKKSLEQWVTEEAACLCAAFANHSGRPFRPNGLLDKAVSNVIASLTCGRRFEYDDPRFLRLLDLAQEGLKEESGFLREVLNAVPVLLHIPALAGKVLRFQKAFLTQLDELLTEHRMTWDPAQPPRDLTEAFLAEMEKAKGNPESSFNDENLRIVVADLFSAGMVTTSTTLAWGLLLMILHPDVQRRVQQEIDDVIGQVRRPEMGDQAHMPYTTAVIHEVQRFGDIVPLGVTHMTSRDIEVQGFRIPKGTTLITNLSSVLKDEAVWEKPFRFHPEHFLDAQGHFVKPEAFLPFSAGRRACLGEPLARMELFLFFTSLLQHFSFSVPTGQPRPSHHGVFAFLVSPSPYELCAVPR", "assay": "Clinical cocktail DDI study with fluoxetine, dextromethorphan probe", "type": "in vivo", "details": "for AUC(0-inf): both, human, plasma, probe dextromethorphan"}, "[2]": {"details": "cited from earlier work"}, "[3]": {"details": "cited from earlier work; for CLIV: after 1mg IV dosing in CYP3A5 nonexpressors; for CLpo: calculated from reported CLiv and bioavailability"}, "[4]": {"details": "cited from earlier work", "remark": "listed apart in the source"}, "CYP3A4 [5]": {"target": "T2, CYP3A4 (Homo sapiens, UniProt P08684)", "T2 sequence (P08684 whole entry)": "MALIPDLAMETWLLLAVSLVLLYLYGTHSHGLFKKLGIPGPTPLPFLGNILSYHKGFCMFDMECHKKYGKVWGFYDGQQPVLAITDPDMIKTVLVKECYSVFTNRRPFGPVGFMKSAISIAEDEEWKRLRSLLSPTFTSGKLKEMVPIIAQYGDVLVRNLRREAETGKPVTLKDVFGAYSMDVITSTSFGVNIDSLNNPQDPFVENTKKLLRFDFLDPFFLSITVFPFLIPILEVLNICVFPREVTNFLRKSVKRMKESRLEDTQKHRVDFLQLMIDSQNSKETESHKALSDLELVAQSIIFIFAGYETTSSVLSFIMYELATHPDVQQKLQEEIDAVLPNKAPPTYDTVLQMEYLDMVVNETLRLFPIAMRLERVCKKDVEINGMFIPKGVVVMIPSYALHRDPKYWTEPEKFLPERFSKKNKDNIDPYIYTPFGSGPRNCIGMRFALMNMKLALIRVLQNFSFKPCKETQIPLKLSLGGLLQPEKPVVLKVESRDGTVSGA", "type": "in vivo", "details": "for Cmax / half-life: both, human, plasma, oral; for Cmax: observed Cmax; for half-life: probe midazolam"}, "CYP3A4 [6]": {"target": "T2, CYP3A4", "details": "parameter used for simulations; ref SimCYP compound library; cited from earlier work"}, "[7]": {"assay": "Drug specific pharmacokinetic parameters used for simulations", "type": "in vivo, human", "details": "estimated to achieve desired distribution kinetics"}, "CYP3A4 [8]": {"target": "T2, CYP3A4", "details": "multiple dose fluoxetine; cited from earlier work"}, "CYP2C19 [9]": {"test_system": "CYP2C19", "assay": "Clinical cocktail DDI study with fluoxetine, omeprazole probe", "type": "in vivo, human", "details": "human, plasma, oral"}, "CYP2C19 [10]": {"target": "T3, CYP2C19 (Homo sapiens, UniProt P33261)", "T3 sequence (P33261 whole entry)": "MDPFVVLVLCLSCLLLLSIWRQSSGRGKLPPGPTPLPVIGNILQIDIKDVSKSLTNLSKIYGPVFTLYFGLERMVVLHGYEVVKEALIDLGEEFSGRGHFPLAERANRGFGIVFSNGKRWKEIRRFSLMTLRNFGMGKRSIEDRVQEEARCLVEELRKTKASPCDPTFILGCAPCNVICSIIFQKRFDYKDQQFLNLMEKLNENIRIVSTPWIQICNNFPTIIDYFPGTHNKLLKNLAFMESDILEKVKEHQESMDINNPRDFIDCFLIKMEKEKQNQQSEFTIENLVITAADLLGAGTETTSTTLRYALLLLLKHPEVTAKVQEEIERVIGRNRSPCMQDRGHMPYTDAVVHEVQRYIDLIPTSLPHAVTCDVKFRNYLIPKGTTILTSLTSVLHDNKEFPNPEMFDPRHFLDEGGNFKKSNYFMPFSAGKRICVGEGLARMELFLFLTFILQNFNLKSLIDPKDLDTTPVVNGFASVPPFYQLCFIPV", "assay": "Clinical cocktail DDI study with fluoxetine, omeprazole probe", "type": "in vivo", "details": "for Cmax / half-life: both, human, plasma, oral; for half-life: probe omeprazole"}, "Caco-2": {"test_system": "Caco-2", "details": "ADAM model input; cited from earlier work"}, "CYP2C19 [11]": {"target": "T3, CYP2C19", "details": "from AUC ratio in CYP2C19 poor and extensive metabolizers; cited from earlier work"}, "CYP1A2": {"target": "T4, CYP1A2 (Homo sapiens, UniProt P05177)", "T4 sequence (P05177 1-516)": "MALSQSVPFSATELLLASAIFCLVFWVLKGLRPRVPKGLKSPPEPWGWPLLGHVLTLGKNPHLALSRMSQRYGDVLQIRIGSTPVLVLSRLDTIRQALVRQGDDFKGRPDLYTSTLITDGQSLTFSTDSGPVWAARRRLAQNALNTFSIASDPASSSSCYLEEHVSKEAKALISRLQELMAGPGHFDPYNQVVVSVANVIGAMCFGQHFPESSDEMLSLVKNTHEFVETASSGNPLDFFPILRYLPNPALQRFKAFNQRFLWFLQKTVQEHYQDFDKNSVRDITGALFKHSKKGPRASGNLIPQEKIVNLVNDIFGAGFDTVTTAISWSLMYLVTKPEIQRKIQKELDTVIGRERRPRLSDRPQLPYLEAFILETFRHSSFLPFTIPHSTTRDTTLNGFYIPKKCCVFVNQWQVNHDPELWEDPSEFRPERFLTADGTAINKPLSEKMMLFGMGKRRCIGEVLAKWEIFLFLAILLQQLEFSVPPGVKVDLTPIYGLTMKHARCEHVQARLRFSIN", "assay": "Clinical cocktail DDI study with fluoxetine, caffeine probe", "type": "in vivo", "details": "for AUC(0-inf): both, human, plasma"}, "CYP2D6 [12]": {"target": "T1, CYP2D6", "details": "desipramine with fluoxetine; cited from earlier work"}, "CYP3A4 [13]": {"test_system": "CYP3A4", "details": "cited from earlier work"}, "CYP2C19 [14]": {"target": "T3, CYP2C19", "details": "lansoprazole with fluoxetine; cited from earlier work"}, "[15]": {"details": "parameter used for simulations, ref SimCYP compound library"}},
  "note": "Read-outs that look alike come from different tables or passages of the source. Marks after values point to notes of the source that are not given here.",
  "data": [
    {"compound": "CN1CC[C@@]23CCCC[C@@H]2[C@@H]1Cc1ccc(O)cc13", "note": "[Dextrorphan]", "values": [
      {"measurement": "decrease in dextrorphan/dextromethorphan Um/Up", "setting": "CYP2D6 [1]; after fluoxetine", "value": 99, "unit": "%"},
      {"measurement": "decrease in plasma dextrorphan/dextromethorphan AUCm/AUCp", "setting": "CYP2D6 [1]; after fluoxetine", "value": 98, "unit": "%"},
      {"measurement": "change in AUC0-∞", "setting": "CYP2D6 [1]; after fluoxetine, P>0.05", "value": "unchanged"},
      {"measurement": "AUC(0-inf)", "setting": "CYP2D6 [1]; oral", "value": "0.028 ± 0.017", "unit": "µM·h"},
      {"measurement": "AUC(0-inf)", "setting": "CYP2D6 [1]; po, 30 mg", "value": "0.029 ± 0.018", "unit": "µM·h"}
    ]},
    {"compound": "Cc1ncc2n1-c1ccc(Cl)cc1C(c1ccccc1F)=NC2", "note": "[Midazolam]", "values": [
      {"measurement": "pKa 1", "setting": "[2]; [15]", "value": 10.95},
      {"measurement": "CLIV", "setting": "[3]", "value": "33 ^k L/hr"},
      {"measurement": "CLIV", "setting": "[3]; listed as midazolam", "value": 33, "unit": "L/h"},
      {"measurement": "Vss", "setting": "[3]; after IV dosing in CYP3A5 nonexpressors", "value": "1.27 ^k L/kg"},
      {"measurement": "fa", "setting": "[3]; [15]", "value": 0.88},
      {"measurement": "fg", "setting": "[3]; [15]", "value": 1},
      {"measurement": "ka", "setting": "[3]; previously estimated", "value": "2.5 ^j hr^−1"},
      {"measurement": "B/P", "setting": "[4]; previously reported", "value": "0.86 ^i"},
      {"measurement": "Cmax", "setting": "CYP3A4 [5]; 2 mg, control day", "value": "17 ± 16", "unit": "nM"},
      {"measurement": "half-life", "setting": "CYP3A4 [5]; 2 mg", "value": 2.2, "unit": "h"},
      {"measurement": "Cmax", "setting": "CYP3A4 [5]; day 12 of fluoxetine", "value": "14.5 ± 10", "unit": "nM"},
      {"measurement": "half-life", "setting": "CYP3A4 [5]", "value": 2.3, "unit": "h"},
      {"measurement": "change in AUC0-∞, oral CL and t1/2", "setting": "CYP3A4 [5]; following 12 days of fluoxetine, p>0.05", "value": "unchanged"},
      {"measurement": "effect on AUC", "setting": "CYP3A4 [5]; two week dosing of fluoxetine", "value": "unaffected"},
      {"measurement": "fm CYP3A4", "setting": "CYP3A4 [6]", "value": 0.94},
      {"measurement": "Vsac", "setting": "[7]", "value": 0.75, "unit": "L/kg"},
      {"measurement": "kin", "setting": "[7]", "value": 11, "unit": "h⁻¹"},
      {"measurement": "kout", "setting": "[7]", "value": 7.5, "unit": "h⁻¹"},
      {"measurement": "effect on AUC", "setting": "CYP3A4 [8]", "value": "no effect"}
    ]},
    {"compound": "COc1ccc2[nH]c([S+]([O-])Cc3ncc(C)c(OC)c3C)nc2c1", "note": "(stereo not drawn) [Omeprazole]", "values": [
      {"measurement": "intrinsic solubility", "setting": "[2]; ADAM model input", "value": 250, "unit": "µg/mL"},
      {"measurement": "CLpo", "setting": "[3]", "value": "80 ^b L/hr"},
      {"measurement": "CLpo", "setting": "[3]; listed as omeprazole", "value": 80, "unit": "L/h"},
      {"measurement": "CLr", "setting": "[3]; [15]", "value": 0.037, "unit": "L/h"},
      {"measurement": "Vss", "setting": "[3]; previously reported", "value": "0.24 ^b L/kg"},
      {"measurement": "concentration at 12 h", "setting": "CYP2C19 [9]", "value": 34, "unit": "nM"},
      {"measurement": "decrease in oral CL", "setting": "CYP2C19 [10]; after 12 days of fluoxetine", "value": 86, "unit": "%"},
      {"measurement": "change in t1/2", "setting": "CYP2C19 [10]; after fluoxetine", "value": "unchanged"},
      {"measurement": "increase in AUC0-∞ compared to control", "setting": "CYP2C19 [10]; after fluoxetine dosing", "value": 7.1, "unit": "fold"},
      {"measurement": "Cmax", "setting": "CYP2C19 [10]", "value": "2500 ± 1400", "unit": "nM"},
      {"measurement": "Cmax", "setting": "CYP2C19 [10]; 20 mg", "value": "660 ± 380", "unit": "nM"},
      {"measurement": "half-life", "setting": "CYP2C19 [10]; 20 mg", "value": "1.2 ± 0.5", "unit": "h"},
      {"measurement": "half-life", "setting": "CYP2C19 [10]", "value": "1.3 ± 0.1", "unit": "h"},
      {"measurement": "omeprazole concentrations, other subjects", "setting": "CYP2C19 [10]; fluoxetine administration day", "value": "2800 ± 1200", "unit": "nM"},
      {"measurement": "omeprazole concentrations, excluded outlier subject", "setting": "CYP2C19 [10]; fluoxetine administration day, except 12-hour sample", "value": "< 4", "unit": "nM"},
      {"measurement": "fu", "setting": "[4]; [15]", "value": 0.043},
      {"measurement": "Caco-2 permeability", "setting": "Caco-2", "value": "26.2*10^−06 cm/s"},
      {"measurement": "fm CYP2C19", "setting": "CYP2C19 [11]", "value": "0.93 ^e"},
      {"measurement": "fm CYP3A4", "setting": "CYP3A4 [6]", "value": 0.07},
      {"measurement": "Vsac", "setting": "[7]", "value": 0.1, "unit": "L/kg"},
      {"measurement": "Vsac Q", "setting": "[7]", "value": 10, "unit": "L/h"}
    ]},
    {"compound": "Cc1nnc2n1-c1ccc(Cl)cc1C(c1ccccc1)=NC2", "note": "[alprazolam]", "values": [
      {"measurement": "increase in AUC", "setting": "CYP3A4 [8]", "value": 1.3, "unit": "fold"}
    ]},
    {"compound": "Cn1c(=O)c2c(ncn2C)n(C)c1=O", "note": "[caffeine]", "values": [
      {"measurement": "AUC(0-inf)", "setting": "CYP1A2; oral", "value": "43 ± 15", "unit": "µM·h"},
      {"measurement": "AUC(0-inf)", "setting": "CYP1A2; po, 100 mg", "value": "43 ± 22", "unit": "µM·h"},
      {"measurement": "effect of fluoxetine on AUC0-∞, oral CL or t1/2", "setting": "CYP1A2; p>0.05", "value": "did not affect"}
    ]},
    {"compound": "NC(=O)N1c2ccccc2C=Cc2ccccc21", "note": "[carbamazepine]", "values": [
      {"measurement": "increase in AUC", "setting": "CYP3A4 [8]", "value": 1.3, "unit": "fold"}
    ]},
    {"compound": "CNCCCN1c2ccccc2CCc2ccccc21", "note": "[desipramine]", "values": [
      {"measurement": "increase in AUC", "setting": "CYP2D6 [12]", "value": 7.8, "unit": "fold"}
    ]},
    {"compound": "CNCCC(Oc1ccc(C(F)(F)F)cc1)c1ccccc1", "note": "(stereo not drawn) [fluoxetine]", "values": [
      {"measurement": "effect on CYP1A2 activity in vivo", "setting": "CYP1A2; multiple dose fluoxetine", "value": "without affecting"},
      {"measurement": "effect on CYP2C19 activity in vivo", "setting": "CYP2C19 [10]; multiple dose fluoxetine", "value": "strongly inhibits"},
      {"measurement": "effect on CYP2D6 activity in vivo", "setting": "CYP2D6 [1]; multiple dose fluoxetine", "value": "strongly inhibits"},
      {"measurement": "effect on CYP3A4 activity in vivo", "setting": "CYP3A4 [5]; multiple dose fluoxetine", "value": "without affecting"},
      {"measurement": "maximum induction of CYP3A4 in vitro", "setting": "CYP3A4 [13]", "value": 2, "unit": "fold"}
    ]},
    {"compound": "Cc1c(OCC(F)(F)F)ccnc1C[S+]([O-])c1nc2ccccc2[nH]1", "note": "(stereo not drawn) [lansoprazole]", "values": [
      {"measurement": "increase in AUC", "setting": "CYP2C19 [14]", "value": 2.9, "unit": "fold"}
    ]}
  ]
}
